# Laboratory results: patent US8435561B2 (Besins Healthcare Luxembourg Sarl, priority 2001, dated 2013)
# Assay: Comparative particle size study (Mastersizer 2000 laser particle sizer)
# Type: physicochemical
# Conditions: in sesame seed oil, olive oil, colza oil or almond oil, compared to that obtained in peanut oil
compound,measurement,value
"CC(=O)[C@H]1CC[C@H]2[C@@H]3CCC4=CC(=O)CC[C@]4(C)[C@H]3CC[C@]12C [Micronized Progesterone, progesterone]",size distribution of progesterone,comparable
